Measurements as given in patent publication US6949522B2, “β-2′- or 3′-halonucleosides” (Pharmasset, Inc., priority 2001, dated 2005).

Test system: HepG2
Assay: Toxicity assay (MTS/MTT dye), HepG2 cells
Settings: HepG2, three day-incubation (Table 1)
Procedure: After a three day-incubation for HepG2, or 5 days for human PBM cells, cell viability and mitochondrial activity were measured in a colorimetric assay using the MTS- or MTT dye method (Promega, Madison, Wis.).

Structure (SMILES)	Cytotoxicity HepG2 IC30 [µM]
Nc1ccn([C@@H]2CS[C@H](CO)O2)c(=O)n1 [Compound 3TC, (−)-β-2′,3′-dideoxy-3′-thiacytidine, reference compound]	>100
Nc1ccn([C@@H]2C=C(F)[C@H](CO)O2)c(=O)n1 [Compound 10, 1-(2,3-Dideoxy-3-fluoro-β-L-glycero-pent-2-eno-furanosyl)cytosine]	>100

Test system: HIV-1 LAI (wild type)
Assay: HIV-1 RT-assay on supernatant of acutely infected human PBM cells, strain LAI
Assay type: cell-based
Settings: Human immunodeficiency virus 1, PBMC, 120 h, 5 days, RT activity reduced by 90%
Procedure: (§1) Human PBM cells (1×10^6 cells/T25 flask) were PHA stimulated for 2 or 3 days, and infected with either a wild type (LAI and xxBRU) or a 3TC-resistant (xxBRU 184V) HIV-1 strain at 100 TCID50, as previously described (27). The culture was kept for 5 days in presence of test compounds at serial 1-log dilutions. Subsequently, human PBM cells were removed from the culture supernatant by centrifugation (10 minutes, 400×g, 4° C.). This clarified supernatant was tested either in the RT-assay, or in the Q-RT-PCR assay.
(§2) Virus particles present in a 1 mL aliquot of culture supernatant were concentrated by high-speed centrifugation (2 hours, 20,000×g, 4° C.). The supernatant was then removed and the virus pellet was dispensed into a 100 μL virus solubilization buffer (VSB: 0.5% Triton X-100; 0.8 M NaCl, 0.5 mM phenylmethylsulfonyl, 20% glycerol, 50 mM Tris.HCl pH 7.8). A 10 μL aliquot of RT-VSB was mixed with 75 μL RT cocktail (60 mM Tris.HCl pH 7.8, 12 mM MgCl2, 6 mM DTT, 6 μg/mL poly (rA)n-oligo (dT)10-12, 1.2 mM dATP, and 80 μCi/mL 3H-TTP) and incubated for 2 hours at 37° C. Subsequently 100 μL of 10% TCA was added, and the total amount of incorporated 3H-TTP was determined.
(§3) HIV-1 present in culture supernatant fluids was quantified by two different methodologies: i) the Q-RT-PCR with read-out in log copies/mL; and ii) the endogenous viral RT assay on cell supernatant with read-out in log counts per minute/mL (CPM/mL). Upon addition of antiviral compounds to the culture media, a dose-related decrease in virus production was observed. Although the two methodologies measured different parameters (viral RNA versus active RT enzyme), results were not markedly different from each other. The HIV-1 Q-RT-PCR results were compared with a previously established cell-based antiviral drug evaluation assay (endogenous HIV-1 RT polymerization activity in cell supematant)(27).

Structure (SMILES)	EC90 [µM]
Nc1ccn([C@@H]2CS[C@H](CO)O2)c(=O)n1 [Compound 3TC, (−)-β-2′,3′-dideoxy-3′-thiacytidine, reference compound]	0.13
Nc1ccn([C@@H]2C=C(F)[C@H](CO)O2)c(=O)n1 [Compound 10, 1-(2,3-Dideoxy-3-fluoro-β-L-glycero-pent-2-eno-furanosyl)cytosine]	25.3

Test system: 3TC-resistant (xxBRU 184V) HIV-1
Assay: HIV-1 RT-assay on supernatant of acutely infected human PBM cells, strain xxBRU 184V
Assay type: cell-based
Settings: Human immunodeficiency virus 1, PBMC, 120 h, read-out: RT-Assay 184V EC90
Procedure: as §1, §2, §3

Structure (SMILES)	EC90 [µM]
Nc1ccn([C@@H]2CS[C@H](CO)O2)c(=O)n1 [Compound 3TC, (−)-β-2′,3′-dideoxy-3′-thiacytidine, reference compound]	535
Nc1ccn([C@@H]2C=C(F)[C@H](CO)O2)c(=O)n1 [Compound 10, 1-(2,3-Dideoxy-3-fluoro-β-L-glycero-pent-2-eno-furanosyl)cytosine]	572

Same assay, conditions: RT-assay

Structure (SMILES)	RT-Assay FI, fold increase (EC90 HIV-1184V/EC90 HIV-1xxBRU)
Nc1ccn([C@@H]2CS[C@H](CO)O2)c(=O)n1 [Compound 3TC, (−)-β-2′,3′-dideoxy-3′-thiacytidine, reference compound]	6,688
Nc1ccn([C@@H]2C=C(F)[C@H](CO)O2)c(=O)n1 [Compound 10, 1-(2,3-Dideoxy-3-fluoro-β-L-glycero-pent-2-eno-furanosyl)cytosine]	16.1

Test system: 3TC-resistant (xxBRU 184V) HIV-1
Assay: HIV-1 Q-RT-PCR assay in human PBM cells, strain xxBRU 184V
Assay type: cell-based
Settings: Human immunodeficiency virus 1, PBMC, 120 h, read-out: Q-RT-PCR HIV-1 assay 184V EC90
Procedure: as §1
Viral RNA present in the culture supernatant was prepared using commercially available columns (QIAamp Viral RNA mini Kit, Qiagen, Valencia, Calif.). Viral RNA was detected in real-time by monitoring increases in fluorescence signal that resulted from degradation of a quenched fluorescent probe molecule following the hybridization of the probe to the arnplified viral DNA (TaqMan 7700 chemistry, Applied Biosystems, Foster City, Calif.). The TaqMan probe and primers were designed using the Primer Express software (Applied Biosystems); they cover highly conserved sequences complementary to an 81 base pair long fragment from the HIV-1 RT gene between codon 230 and 257 of the group MHIV-1 genome; • probe 5′-6FAM-[…]-TAMRA-3′ (Sequence 1) • sense primer: 5′-[…]-3′ (Sequence 2); and • antisense primer 5′-[…]-3′ (Sequence 3).
A total of 5 μL RNA was RT-amplified using reagents and conditions as described by the manufacturer (Applied Biosystems). […] Copy numbers were calibrated using the Roche Amplicor HIV-1 Monitor test™ (Roche Diagnostics, Branchburg, N.J.) on a 1-log dilution series of a clinical HIV-1 genotype B isolate (attenuated in vitro to obtain a high viral load). The 10-6 diluted sample became positive at threshold cycle (Ct=PCR cycle threshold where a sample becomes detectable)=35.52, which corresponded to 1,410 copies/mL in the Roche monitor HIV-1 version II assay. When validated over a dynamic range of 3 logs of virus, there was excellent correlation (r2˜1) between the two methodologies. […] Therefore, the currently designed primer and probe set allowed reliable quantification of both clinical samples and HIV-1 in vitro preparations.
as §3

Structure (SMILES)	EC90 [µM]
Nc1ccn([C@@H]2CS[C@H](CO)O2)c(=O)n1 [Compound 3TC, (−)-β-2′,3′-dideoxy-3′-thiacytidine, reference compound]	> 100
Nc1ccn([C@@H]2C=C(F)[C@H](CO)O2)c(=O)n1 [Compound 10, 1-(2,3-Dideoxy-3-fluoro-β-L-glycero-pent-2-eno-furanosyl)cytosine]	> 100

Same assay, conditions: Q-RT-PCR

Structure (SMILES)	Q-RT-PCR HIV-1 assay FI, fold increase (EC90 HIV-1184V/EC90 HIV-1xxBRU)
Nc1ccn([C@@H]2CS[C@H](CO)O2)c(=O)n1 [Compound 3TC, (−)-β-2′,3′-dideoxy-3′-thiacytidine, reference compound]	>1,562

Test system: HBV
Assay: HBV Q-PCR assay in HepAD38 (AD38) cells
Assay type: cell-based, hepatitis B virus
Settings: 10 μM, 5 days, HepAD38 cells
Procedure: The HepAD38 cell line replicates HBV under conditions that can be regulated with tetracycline (12, 15). In the presence of this drug, the cell supernatant is virtually free of viral DNA, but upon the removal of tetracycline from the culture medium, these cells secrete virus-like particle into the supernatant (12). HepAD38 cells were seeded at 5×10^4 cells/well in a 96-well plate in seeding medium (DMEM/F12+10% FBS, 50 μg/mL penicillin, 50 μg/mL streptomycin, 100 μg/mL kanamycin, 400 μg/mL G418, and 0.3 μg/mL tetracycline) and incubated for 2 days at 37° C. in a 5% CO2 humid atmosphere. The seeding media was removed, and cells were washed 3 times with PBS. Cells were then incubated with 200 μL assay medium (DMEM/F12+10% FBS+P/S/K) containing either no compound, test compound, or control drugs at 10 μM. After a 5-day incubation, the cell supernatant was collected and stored at −70° C. until HBV DNA was quantified. HBV DNA was extracted from supernatant using QiaAmp DNA blood Mini kit (Qiagen) and nucleic acids eluted in 200 μL. Viral DNA was detected in Q-PCR. The TaqMan probe and primers were designed using the Primer Express software (Applied Biosystems) and cover highly conserved sequences complementary to the DNA sequences present in HBsAg (24). A total of 5 μL DNA was amplified using reagents and conditions as described by the manufacturer (Applied Biosystems). […]

Structure (SMILES)	reduction of release of HBV DNA in the supernatant [log]
Nc1ccn([C@@H]2CS[C@H](CO)O2)c(=O)n1 [Compound 3TC, (−)-β-2′,3′-dideoxy-3′-thiacytidine, reference compound]	~1.5

Same assay, conditions: AD38 cells, 5-day incubation, HBV DNA in supernatant; read-out: HBV assay Q-PCR EC90

Structure (SMILES)	EC90 [µM]
Nc1ccn([C@@H]2CS[C@H](CO)O2)c(=O)n1 [Compound 3TC, (−)-β-2′,3′-dideoxy-3′-thiacytidine, reference compound]	3

Same assay, conditions: Hepatitis B virus, HePAD38, 120 h, read-out: HBV assay Q-PCR EC90

Structure (SMILES)	EC90 [µM]
Nc1ccn([C@@H]2C=C(F)[C@H](CO)O2)c(=O)n1 [Compound 10, 1-(2,3-Dideoxy-3-fluoro-β-L-glycero-pent-2-eno-furanosyl)cytosine]	≥ 100

Same assay, conditions: Hepatitis B virus, HePAD38, 120 h; AD38 cells, 5-day incubation, HBV DNA in supernatant; read-out: HBV assay Q-PCR EC90

Structure (SMILES)	EC90 [µM]
Nc1ccn([C@@H]2CS[C@H](CO)O2)c(=O)n1 [Compound 3TC, (−)-β-2′,3′-dideoxy-3′-thiacytidine, reference compound]	2.9

Test system: BVDV (strain NADL)
Assay: BVDV Q-RT-PCR assay in MDBK cells
Assay type: cell-based, bovine viral diarrhea virus
Settings: Bovine viral diarrhea virus isolates and strains, MDBK, 24 h, read-out: BVDV assay Q-PCR EC90
Procedure: Madin-Darby Bovine Kidney (MDBK) cells were maintained in DMEM/F12 supplemented with 10% heat-inactivated horse serum at 37° C. in a humidified, 5% CO2 atmosphere. Cells were seeded in 96-well plates at 5×10^3 cells/wcll and incubated for 1 hour. BVDV (strain NADL) was used to infect the cells in monolayer at MOI 0.02. After 45 minutes of infection, the viral inoculum was removed and the cells were washed twice. Media or media containing test compound was added to these cells, followed by 24 hour incubation. Cell supernatant fluids were collected, clarified by centrifugation (2 minutes, 3,000 g, room temperature) and viral RNA was prepared (QIAamp Viral RNA mini Kit, Qiagen). Viral RNA was detected in real-time RT-PCR.

Structure (SMILES)	EC90 [µM]
Nc1ccn([C@@H]2C=C(F)[C@H](CO)O2)c(=O)n1 [Compound 10, 1-(2,3-Dideoxy-3-fluoro-β-L-glycero-pent-2-eno-furanosyl)cytosine]	> 200

Same assay, conditions: Bovine viral diarrhea virus isolates and strains; MDBK cells, 24 hour incubation, viral RNA in supernatant; read-out: BVDV assay Q-PCR EC90

Structure (SMILES)	EC90 [µM]
Nc1ccn([C@@H]2CS[C@H](CO)O2)c(=O)n1 [Compound 3TC, (−)-β-2′,3′-dideoxy-3′-thiacytidine, reference compound]	> 200
